Data reported in patent US20260070945A1, “MACROCYCLIC IMMUNOMODULATORS” (Bristol-Myers Squibb Company, priority 2022, published 2026).
*1 amine or outer side, *2 acyl side, *3 side chain or, on linkers, in order; H or OH if unused. Where a SMILES comes first, the peptide text is derived from it. Bridges are numbered along the chain shown (N, C = ends). [ ]: non-standard residue; d: D form. The star is where a group is joined. ξ: configuration not given here. Tyr(3,5-F2) = N[C@@H](Cc1cc(F)c(O)c(F)c1)C(=O)O; Phe(4-COOH) = N[C@@H](Cc1ccc(C(=O)O)cc1)C(=O)O; Bip = N[C@@H](Cc1ccc(-c2ccccc2)cc1)C(=O)O; Phe(3-Me) = Cc1cccc(C[C@H](N)C(=O)O)c1; γGlu = O=C(O)[C@H](CCC(=O)[*:2])N[*:1]; Gly(decyl) = CCCCCCCCCC[C@H](N)C(=O)O; NH(CH2)12COOH = O=C(O)CCCCCCCCCCCCN*; Val(3-OH) = CC(C)(O)[C@H](N)C(=O)O; hhGln = NC(=O)CCCC[C@H](N)C(=O)O; 4Pal = N[C@@H](Cc1ccncc1)C(=O)O; Cha = N[C@@H](CC1CCCCC1)C(=O)O; Cit = NC(=O)NCCC[C@H](N)C(=O)O; Thr(3ξ) = CC(O)[C@H](N)C(=O)O; 12Ado = NCCCCCCCCCCCC(=O)O; Carboxymethyl = O=C(O)C*; NMeA = CN[C@@H](C)C(=O)O; Nle = CCCC[C@H](N)C(=O)O; Aun = NCCCCCCCCCCC(=O)O; Dab = NCC[C@H](N)C(=O)O; Nva = CCC[C@H](N)C(=O)O; AEEA = NCCOCCOCC(=O)O; Sar = CNCC(=O)O

molecular target: T1, PD-1/PD-L1 interaction (PE-labeled human PD-L1-Ig binding to Jurkat cell line over-expressing human PD-1) (Homo sapiens, UniProt Q15116); experiment: Jurkat-PD-1 Cell Binding High-Content Screening Assay (CBA); details: Jurkat-hPD-1 cells, PE-labeled PD-L1-Ig 20 nM final; read-out: Jurkat HPD1 PDL1 IC50
T1 construct: expressed in transfected cells; host or cells: Jurkat
Method in brief: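 High-content imaging read-out of PE-PD-L1-Ig binding (20 nM final, 1 h) to Jurkat-hPD-1 cells, after 2 h compound exposure at 37 °C in DMEM with 10% FCS. Nuclei counterstained with Hoechst 33342 after paraformaldehyde fixation.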

T1 sequence (Q15116 25-288): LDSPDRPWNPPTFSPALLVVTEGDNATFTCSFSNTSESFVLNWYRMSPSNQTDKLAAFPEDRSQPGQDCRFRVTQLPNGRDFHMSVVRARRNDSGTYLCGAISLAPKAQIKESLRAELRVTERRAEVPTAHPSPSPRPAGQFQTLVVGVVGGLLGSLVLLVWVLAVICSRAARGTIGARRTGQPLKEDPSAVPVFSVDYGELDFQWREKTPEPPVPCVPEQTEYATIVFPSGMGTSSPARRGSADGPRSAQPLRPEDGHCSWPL

Compared with `CCCC[C@@H]1NC(=O)CSC[C@@H](C(=O)N[C@@H](CCN)C(=O)NCCOCCOCC(=O)N[C@@H](CCC(=O)NCCOCCOCC(=O)NCCCCCCCCCCCCC(=O)O)C(=O)O)NC(=O)[C@H](CCC(=O)O)NC(=O)[C@H](C(C)C)NC(=O)[C@H](CC2CCCCC2)NC(=O)[C@H](CCN)NC(=O)[C@@H](CC(C)C)NC(=O)[C@H](C)N(C)C(=O)[C@H](Cc2ccc(OCC(=O)O)cc2)NC(=O)[C@H](Cc2ccc(-c3ccccc3)cc2)NC(=O)[C@H](Cc2ccc(OCC(=O)O)cc2)NC(=O)[C@H](Cc2cccc(C)c2)NC(=O)[C@H](CC(=O)O)NC(=O)[C@H](Cc2ccc(OCC(=O)O)cc2)NC1=O` [Example 2011] ({CH2CO}-[Nle]Y(Carboxymethyl)D[Phe(3-Me)]Y(Carboxymethyl)[Bip]Y(Carboxymethyl)[NMeA][dL][Dab][Cha]VEC[Dab][AEEA][γGlu][AEEA]-{NH(CH2)12COOH}; thioether N-14), `Cc1cccc(C[C@@H]2NC(=O)[C@H](CC(=O)O)NC(=O)[C@H](Cc3ccc(OCC(=O)O)cc3)NC(=O)[C@H](CCCNC(=N)N)NC(=O)CSC[C@@H](C(=O)N[C@@H](CCCCN)C(=O)NCCCCCCCCCCC(=O)O)NC(=O)[C@H]([C@@H](C)O)NC(=O)[C@H](C(C)C)NC(=O)[C@H](CC3CCCCC3)NC(=O)[C@H](CCN)NC(=O)[C@@H](CC(C)C)NC(=O)[C@H](C)N(C)C(=O)[C@H](Cc3ccc(OCC(=O)O)cc3)NC(=O)[C@H](Cc3ccc(-c4ccccc4)cc3)NC(=O)[C@H](Cc3ccc(OCC(=O)O)cc3)NC2=O)c1` [Example 1224] ({CH2CO}-RY(Carboxymethyl)D[Phe(3-Me)]Y(Carboxymethyl)[Bip]Y(Carboxymethyl)[NMeA][dL][Dab][Cha]VTCK[Aun]-OH; thioether N-14) is 3.2-fold lower in IC50: 88.3 nM for the first, 27.9 nM for the second.

Going from `CC(C)C[C@@H]1NC(=O)[C@H](Cc2c[nH]c3ccccc23)NC(=O)[C@H](CC(=O)O)NC(=O)[C@H](Cc2ccc(C(=O)O)cc2)NC(=O)[C@H](Cc2ccc(OCC(=O)O)cc2)NC(=O)CSC[C@@H](C(=O)N[C@H](CC(N)=O)C(=O)NCCCCCCCCCCC(=O)O)NC(=O)[C@H](CO)NC(=O)[C@H](C(C)C)NC(=O)[C@H](CC2CCCCC2)NC(=O)[C@H](CCN)NC(=O)[C@@H](CC(C)C)NC(=O)[C@H](C)N(C)C(=O)[C@H](C(C)C)NC(=O)[C@H](Cc2ccc(-c3ccccc3)cc2)NC1=O` [Example 2234] ({CH2CO}-Y(Carboxymethyl)[Phe(4-COOH)]DWL[Bip]V[NMeA][dL][Dab][Cha]VSC[dN][Aun]-OH; thioether N-14) to `CCC[C@@H]1NC(=O)[C@@H](CC(C)C)NC(=O)[C@H](C)N(C)C(=O)[C@H](C(C)C)NC(=O)[C@H](Cc2ccc(-c3ccccc3)cc2)NC(=O)[C@H](CC(C)C)NC(=O)[C@H](Cc2c[nH]c3ccccc23)NC(=O)[C@H](CC(=O)O)NC(=O)[C@H](Cc2ccc(C(=O)O)cc2)NC(=O)[C@H](Cc2ccc(OCC(=O)O)cc2)NC(=O)CSC[C@@H](C(=O)NCCOCCOCC(=O)NCCCCCCCCCCC(=O)O)NC(=O)[C@H](CCCCC(N)=O)NC(=O)[C@H](C(C)C)NC(=O)[C@H](CC2CCCCC2)NC1=O` [Example 2187] ({CH2CO}-Y(Carboxymethyl)[Phe(4-COOH)]DWL[Bip]V[NMeA][dL][Nva][Cha]V[hhGln]C[AEEA][Aun]-OH; thioether N-14), the IC50 falls from 13.4 nM to 6.2 nM (2.2-fold).

Going from `Cc1cccc(C[C@@H]2NC(=O)[C@H](CC(=O)O)NC(=O)[C@H](Cc3ccc(OCC(=O)O)cc3)NC(=O)[C@H](CCCNC(=N)N)NC(=O)CSC[C@@H](C(=O)N[C@H](CCC(=O)O)C(=O)NCCCCCCCCCCC(=O)O)NC(=O)[C@H](C(C)O)NC(=O)[C@H](C(C)C)NC(=O)[C@H](CC3CCCCC3)NC(=O)[C@H](CCN)NC(=O)[C@@H](CC(C)C)NC(=O)[C@H](C)N(C)C(=O)[C@H](CCCNC(N)=O)NC(=O)[C@H](Cc3ccc(-c4ccccc4)cc3)NC(=O)[C@H](C(C)C)NC2=O)c1` (stereo partly drawn) [Example 2392] ({CH2CO}-RY(Carboxymethyl)D[Phe(3-Me)]V[Bip][Cit][NMeA][dL][Dab][Cha]V[Thr(3ξ)]C[dE][Aun]-OH; thioether N-14) to `Cc1cccc(C[C@@H]2NC(=O)[C@H](CC(=O)O)NC(=O)[C@H](Cc3ccc(OCC(=O)O)cc3)NC(=O)[C@H](CCCNC(=N)N)NC(=O)CSC[C@@H](C(=O)N[C@@H](CCCCN)C(=O)NCCCCCCCCCCC(=O)O)NC(=O)[C@H]([C@@H](C)O)NC(=O)[C@H](C(C)C)NC(=O)[C@H](CC3CCCCC3)NC(=O)[C@H](CCN)NC(=O)[C@@H](CC(C)C)NC(=O)[C@H](C)N(C)C(=O)[C@H](Cc3ccc(OCC(=O)O)cc3)NC(=O)[C@H](Cc3ccc(-c4ccccc4)cc3)NC(=O)[C@H](Cc3ccc(C(=O)O)cc3)NC2=O)c1` [Example 1225] ({CH2CO}-RY(Carboxymethyl)D[Phe(3-Me)][Phe(4-COOH)][Bip]Y(Carboxymethyl)[NMeA][dL][Dab][Cha]VTCK[Aun]-OH; thioether N-14), the IC50 rises from 29.6 nM to 48.7 nM (1.6-fold). The first is the more potent here.

First: CC(=O)NCCCC[C@@H]1NC(=O)[C@H](C(C)C)NC(=O)[C@H](CC2CCCCC2)NC(=O)[C@H](CCN)NC(=O)[C@@H](CC(C)C)NC(=O)[C@H](C)N(C)C(=O)[C@H](Cc2ccc(O)cc2)NC(=O)[C@H](Cc2ccc(-c3ccccc3)cc2)NC(=O)[C@H](C(C)C)NC(=O)[C@H](Cc2cccc(C)c2)NC(=O)[C@H](CC(=O)O)NC(=O)[C@H](Cc2ccc(OCC(=O)O)cc2)NC(=O)[C@H](CC(N)=O)NC(=O)CSC[C@@H](C(=O)N(C)CC(=O)NCCCCCCCCCCC(=O)O)NC1=O [Example 2271] ({CH2CO}-NY(Carboxymethyl)D[Phe(3-Me)]V[Bip]Y[NMeA][dL][Dab][Cha]VK(Ac)C[Sar][Aun]-OH; thioether N-14)
Second: Cc1cccc(C[C@@H]2NC(=O)[C@H](CC(=O)O)NC(=O)[C@H](Cc3ccc(C(=O)O)cc3)NC(=O)[C@H](CCN)NC(=O)CSC[C@@H](C(=O)N[C@@H](CCN)C(=O)NCCCCCCCCCCC(=O)O)NC(=O)[C@H](CO)NC(=O)[C@H](C(C)(C)O)NC(=O)[C@H](CC3CCCCC3)NC(=O)[C@H](CCN)NC(=O)[C@@H](CC(C)C)NC(=O)[C@H](C)N(C)C(=O)[C@H](Cc3ccc(OCC(=O)O)cc3)NC(=O)[C@H](Cc3ccc(-c4ccccc4)cc3)NC(=O)[C@H](Cc3cc(F)c(O)c(F)c3)NC2=O)c1 [Example 1290] ({CH2CO}-[Dab][Phe(4-COOH)]D[Phe(3-Me)][Tyr(3,5-F2)][Bip]Y(Carboxymethyl)[NMeA][dL][Dab][Cha][Val(3-OH)]SC[Dab][Aun]-OH; thioether N-14)
The IC50 of the first is 13-fold higher: 260 nM for the first, 20.1 nM for the second.

same assay, conditions: PE-labeled PD-L1-Ig 20 nM final, Jurkat-hPD-1 cells; read-out: Jurkat HPD1 PDL1 IC50

Compared with `CC(C)C[C@H]1NC(=O)[C@H](C)N(C)C(=O)[C@H](CCC(N)=O)NC(=O)[C@H](Cc2ccc(-c3ccccc3)cc2)NC(=O)[C@H](C(C)C)NC(=O)[C@H](Cc2c[nH]c3ccccc23)NC(=O)[C@H](CC(=O)O)NC(=O)[C@H](Cc2ccc(OCC(=O)O)cc2)NC(=O)[C@H](Cc2ccncc2)NC(=O)CSC[C@@H](C(=O)N[C@@H](CCN)C(=O)NCCOCCOCC(=O)NCCCCCCCCCCC(=O)O)NC(=O)[C@H](CCC(=O)O)NC(=O)[C@H](C(C)(C)O)NC(=O)[C@H](CC2CCCCC2)NC(=O)[C@H](CCN)NC1=O` [Example 2494] ({CH2CO}-[4Pal]Y(Carboxymethyl)DWV[Bip]Q[NMeA][dL][Dab][Cha][Val(3-OH)]EC[Dab][AEEA][Aun]-OH; thioether N-14), `CC(C)C[C@@H]1NC(=O)[C@H](Cc2c[nH]c3ccccc23)NC(=O)[C@H](CC(=O)O)NC(=O)[C@H](Cc2ccc(C(=O)O)cc2)NC(=O)[C@H](Cc2ccc(OCC(=O)O)cc2)NC(=O)CSC[C@@H](C(=O)NCCOCCOCC(=O)NCCCCCCCCCCC(=O)O)NC(=O)[C@H](CO)NC(=O)[C@H](C(C)(C)O)NC(=O)[C@H](CC2CCCCC2)NC(=O)[C@H](CCN)NC(=O)[C@@H](CC(C)C)NC(=O)[C@H](C)N(C)C(=O)[C@H](C(C)C)NC(=O)[C@H](Cc2ccc(-c3ccccc3)cc2)NC1=O` [Example 2443] ({CH2CO}-Y(Carboxymethyl)[Phe(4-COOH)]DWL[Bip]V[NMeA][dL][Dab][Cha][Val(3-OH)]SC[AEEA][Aun]-OH; thioether N-14) is 2.6-fold higher in IC50: 9.2 nM for the first, 23.6 nM for the second.

First: CCCCCCCCCC[C@@H]1NC(=O)[C@H](C(C)C)NC(=O)[C@H](CC2CCCCC2)NC(=O)[C@H](CCN)NC(=O)[C@@H](CC(C)C)NC(=O)[C@H](C)N(C)C(=O)[C@H](Cc2ccc(OCC(=O)O)cc2)NC(=O)[C@H](Cc2ccc(-c3ccccc3)cc2)NC(=O)[C@H](Cc2ccc(OCC(=O)O)cc2)NC(=O)[C@H](Cc2cccc(C)c2)NC(=O)[C@H](CC(=O)O)NC(=O)[C@H](Cc2ccc(OCC(=O)O)cc2)NC(=O)[C@H]([C@@H](C)O)NC(=O)CSC[C@@H](C(=O)N[C@@H](CCN)C(=O)NCCOCCOCC(=O)NCCCCCCCCCCCC(=O)O)NC1=O [Example 2673] ({CH2CO}-TY(Carboxymethyl)D[Phe(3-Me)]Y(Carboxymethyl)[Bip]Y(Carboxymethyl)[NMeA][dL][Dab][Cha]V[Gly(decyl)]C[Dab][AEEA][12Ado]-OH; thioether N-14)
Second: Cc1cccc(C[C@@H]2NC(=O)[C@H](CC(=O)O)NC(=O)[C@H](Cc3ccc(OCC(=O)O)cc3)NC(=O)[C@H](C(C)O)NC(=O)CSC[C@@H](C(=O)NCCOCCOCC(=O)NCCCCCCCCCCC(=O)O)NC(=O)[C@H](Cc3cnc[nH]3)NC(=O)[C@H](C(C)(C)O)NC(=O)[C@H](CC3CCCCC3)NC(=O)[C@H](CCN)NC(=O)[C@@H](CC(C)C)NC(=O)[C@H](C)N(C)C(=O)[C@H](Cc3ccc(OCC(=O)O)cc3)NC(=O)[C@H](Cc3ccc(-c4ccccc4)cc3)NC(=O)[C@H](Cc3ccc(C(=O)O)cc3)NC2=O)c1 (stereo partly drawn) [Example 2431] ({CH2CO}-[Thr(3ξ)]Y(Carboxymethyl)D[Phe(3-Me)][Phe(4-COOH)][Bip]Y(Carboxymethyl)[NMeA][dL][Dab][Cha][Val(3-OH)]HC[AEEA][Aun]-OH; thioether N-14)
The IC50 of the first is 1.6-fold lower: 90.3 nM for the first, 140 nM for the second.
